One series is described as follows: Log P of drug. In kind it is physicochemical. Conditions: octanol/water. From the text: The first property of hydrophobic drugs is that they are extremely hydrophobic. Log P, defined as the base 10 logarithm of the ratio of the drug solubility in octanol to the drug solubility in water, is a widely accepted measure of hydrophobicity. By “extremely hydrophobic” is meant that the Log P value of the drug is at least 4.0, preferably at least 4.5, and most preferably at least 5.0. Log P may be measured experimentally or calculated using methods known in the art. When using a calculated value for Log P, the highest value calculated using any generally accepted method for calculating Log P is used. Calculated Log P values are often referred to by the calculation method, such as Clog P, Alog P, and Mlog P. The Log P may also be estimated using fragmentation methods, such as Crippen's fragmentation method (27 J. Chem. Inf. Comput. Sci. 21 (1987)); Viswanadhan's fragmentation method (29 J. Chem. Inf. Comput. Sci. 163 (1989)); or Broto's fragmentation method (19 Eur. J. Med. Chem.-Chim. Theor. 71 (1984). Preferably the Log P value is calculated by using the average value estimated using Crippen's, Viswanadhan's, and Broto's fragmentation methods.

A short description of series [1]: Solubility of drug in water. It is filed as physicochemical.
Series [2] in a line: Solubility in model fasted duodenal (MFD) solution. In kind it is physicochemical. The settings on record: fassgf or other biorelevant, PBS containing 7.3 mM sodium taurocholic acid and 1.4 mM 1-palmitoyl-2-oleyl-sn-glycero-3-phosphocholine.
The procedure of series [3]:
The polymer is a poorly aqueous soluble non-ionizable polymer. […] An appropriate PBS solution is an aqueous solution consisting of 20 mM sodium phosphate (Na2HPO4), 47 mM potassium phosphate (KH2PO4), 87 mM NaCl, and 0.2 mM KCl, adjusted to pH 6.5 with NaOH. A test to determine whether the polymer is poorly aqueous soluble may be performed as follows. The polymer is initially present in bulk powder form with average particle sizes of greater than about 1 micron. The polymer alone is administered at a concentration of 0.2 mg/mL to the PBS solution and stirred for approximately 1 hour at room temperature. Next, a nylon 0.45 μm filter is weighed, and the polymer solution is filtered. The filter is dried overnight at 40° C., and weighed the following morning. The amount of polymer dissolved is calculated from the amount of polymer added to the PBS solution minus the amount of polymer remaining on the filter (mg). […] First, 0.2 mg/mL of the polymer was added to a PBS solution consisting of 20 mM Na2HPO4, 47 mM KH2PO4, 87 mM NaCl, and 0.2 mM KCl, adjusted to pH 6.5 with NaOH. The polymer was stirred in the PBS solution for approximately 1 hour at room temperature. […] The amount of soluble polymer was calculated from the amount of polymer added to form the polymer solution minus the amount of polymer remaining on the filter.

From patent US20100266692A1, “NANOPARTICLES COMPRISING A NON-IONIZABLE POLYMER AND AN ANIONIC CELLULOSIC POLYMER” (priority 2007, published 2010) come the findings set out here.

For orientation: logP means the decadic logarithm of the partition coefficient of the neutral form, usually between octanol and water. Lower therefore signals a more hydrophilic compound. As a reminder, the solubility is how much of the substance goes into solution per volume. A low value points to a poorly soluble substance.

Converted amounts (≈) assume the structure as drawn.

Regarding `Cc1onc(-c2ccccc2)c1-c1ccc(S(N)(=O)=O)cc1` [Drug 1, 4-(5-methyl-3-phenyl-4-isoxazolyl) benzenesulfonamide, reference compound], the logP in the series “Log P of drug” is about 3. Besides, in series [1], the solubility was about 10 µg/mL (≈ 31.8 µM).
For `CC[C@@H]1C[C@H](N(Cc2cc(C(F)(F)F)cc(C(F)(F)F)c2)C(C)=O)c2cc(C(F)(F)F)ccc2N1C(=O)OC(C)C` [Drug 2, [2R,4S]-4-[acetyl-(3,5-bis-trifluoromethyl-benzyl)-amino]-2-ethyl-6-trifluoromethyl-3,4-dihydro-2H-quinoline-1-carboxylic acid isopropyl ester] the same measures were 6.7 and under 1 µg/mL.
For the compound `Cc1ccc(-c2cc(C(F)(F)F)nn2-c2ccc(S(N)(=O)=O)cc2)cc1` [Drug 3, 4-[5-(4-methylphenyl)-3-(trifluoromethyl)-1H-pyrazol-1-yl]benzenesulfonamide], the solubility in series [2] was about 40 µg/mL (≈ 105 µM).
As for cellulose acetate, in series [3], the “Amount Soluble at pH 6.5” value is 0.03 mg/mL.
As to ethylcellulose, the “Amount Soluble at pH 6.5” value in series [3] is reported as under 0.001 mg/mL.
